Test system: S. aureus (ATCC 29213)
Assay: MICs of compound having Formula IV and ciprofloxacin alone and in combination
Format: cell-based
Details: against S. aureus; alone
Method: Compositions having various combinations of concentrations of compound having Formula IV and cirprofloxacin were tested systematically against S. aureus, P. aeruginosa, and E. coli.

How did the effectiveness in words turn out when `O=C(O)c1cn(C2CC2)c2cc(N3CCNCC3)c(F)cc2c1=O` [Ciprofloxacin, ciprofloxacin] was run?
Its effectiveness in words is “effective”.
